Reference: the NIST ThermoML archive (doi:10.1016/j.jct.2013.01.023)
Numbers after ± are expanded uncertainties.

Experiment: mn = molality of the nth substance listed, in mol/kg
Settings: 101 kPa, Liquid; for mass density: Vibrating tube method; for speed of sound: Pulse-echo method

NCC(=O)O [2-aminoacetic acid] + O
Settings	mass density, 288.15 K [kg/m3]	mass density, 293.15 K [kg/m3]	mass density, 298.15 K [kg/m3]	mass density, 303.15 K [kg/m3]	mass density, 308.15 K [kg/m3]	speed of sound, 298.15 K [m/s]
m1 = 0.06261	1001.13 ± 0.11	1000.21 ± 0.11	999.029 ± 0.11	997.604 ± 0.11	995.978 ± 0.11	1499.9 ± 0.97
m1 = 0.1199	1002.98 ± 0.11	1002.03 ± 0.11	1000.83 ± 0.11	–	997.751 ± 0.11	1502.8 ± 0.98
m1 = 0.1769	1004.8 ± 0.11	1003.84 ± 0.11	1002.62 ± 0.11	1001.15 ± 0.11	999.494 ± 0.11	1505.8 ± 0.98
m1 = 0.2352	1006.65 ± 0.11	1005.66 ± 0.11	1004.42 ± 0.11	1002.94 ± 0.11	1001.28 ± 0.11	1508.8 ± 0.98
m1 = 0.2963	1008.56 ± 0.11	1007.54 ± 0.11	1006.29 ± 0.11	1004.79 ± 0.11	1003.12 ± 0.11	1512 ± 0.98

CN(C)CC(=O)O [(Dimethylamino)acetic acid] + O
Settings	mass density, 288.15 K [kg/m3]	mass density, 293.15 K [kg/m3]	mass density, 298.15 K [kg/m3]	mass density, 303.15 K [kg/m3]	mass density, 308.15 K [kg/m3]	speed of sound, 298.15 K [m/s]
m1 = 0.05966	1000.46 ± 0.11	999.537 ± 0.11	998.354 ± 0.11	996.925 ± 0.11	995.303 ± 0.11	1500.9 ± 0.98
m1 = 0.119	1001.8 ± 0.11	1000.85 ± 0.11	999.646 ± 0.11	998.203 ± 0.11	996.574 ± 0.11	1505.1 ± 0.98
m1 = 0.1791	1003.14 ± 0.11	1002.16 ± 0.11	1000.94 ± 0.11	999.477 ± 0.11	997.836 ± 0.11	1509.4 ± 0.98
m1 = 0.2399	1004.48 ± 0.11	1003.48 ± 0.11	1002.23 ± 0.11	1000.75 ± 0.11	999.104 ± 0.11	1513.6 ± 0.99
m1 = 0.3007	1005.8 ± 0.11	1004.78 ± 0.11	1003.51 ± 0.11	1002.02 ± 0.11	1000.37 ± 0.11	1517.9 ± 0.99

C[N+](C)(C)CC(=O)[O-] [(trimethylammonio)acetate] + O
Settings	mass density, 288.15 K [kg/m3]	mass density, 293.15 K [kg/m3]	mass density, 298.15 K [kg/m3]	mass density, 303.15 K [kg/m3]	mass density, 308.15 K [kg/m3]	speed of sound, 298.15 K [m/s]
m1 = 0.06226	1000.25 ± 0.11	999.33 ± 0.11	998.149 ± 0.11	996.726 ± 0.11	995.1 ± 0.11	1501.3 ± 0.97
m1 = 0.125	1001.4 ± 0.11	1000.46 ± 0.11	999.253 ± 0.11	997.814 ± 0.11	996.18 ± 0.11	1505.9 ± 0.98
m1 = 0.1884	1002.54 ± 0.11	1001.57 ± 0.11	1000.35 ± 0.11	998.899 ± 0.11	997.254 ± 0.11	1510.5 ± 0.98
m1 = 0.2532	1003.69 ± 0.11	1002.7 ± 0.11	1001.46 ± 0.11	999.994 ± 0.11	998.337 ± 0.11	1515.2 ± 0.98
m1 = 0.3185	1004.83 ± 0.11	1003.83 ± 0.11	1002.56 ± 0.11	1001.08 ± 0.11	999.42 ± 0.11	1519.9 ± 0.99

CNCC(=O)O [sarcosine] + O
Settings	mass density, 288.15 K [kg/m3]	mass density, 293.15 K [kg/m3]	mass density, 298.15 K [kg/m3]	mass density, 303.15 K [kg/m3]	mass density, 308.15 K [kg/m3]	speed of sound, 298.15 K [m/s]
m1 = 0.05883	1000.7 ± 0.11	999.78 ± 0.11	998.598 ± 0.11	997.176 ± 0.11	995.552 ± 0.11	1500.3 ± 0.97
m1 = 0.1166	1002.25 ± 0.11	1001.31 ± 0.11	1000.12 ± 0.11	998.68 ± 0.11	997.042 ± 0.11	1503.9 ± 0.98
m1 = 0.1777	1003.88 ± 0.11	1002.92 ± 0.11	1001.7 ± 0.11	1000.25 ± 0.11	998.599 ± 0.11	1507.7 ± 0.98
m1 = 0.2363	1005.42 ± 0.11	1004.43 ± 0.11	1003.2 ± 0.11	1001.74 ± 0.11	1000.07 ± 0.11	1511.3 ± 0.98
m1 = 0.2987	1007.05 ± 0.11	1006.03 ± 0.11	1004.79 ± 0.11	1003.31 ± 0.11	1001.63 ± 0.11	1515.2 ± 0.98

C[N+](C)(C)[O-] [trimethylamine oxide] + O
Settings	mass density, 288.15 K [kg/m3]	mass density, 293.15 K [kg/m3]	mass density, 298.15 K [kg/m3]	mass density, 303.15 K [kg/m3]	mass density, 308.15 K [kg/m3]	speed of sound, 298.15 K [m/s]
m1 = 0.0592	999.725 ± 0.38	998.807 ± 0.37	997.629 ± 0.36	996.213 ± 0.35	994.58 ± 0.34	1500.9 ± 2.7
m1 = 0.1182	1000.29 ± 0.7	999.358 ± 0.68	998.163 ± 0.66	996.73 ± 0.64	995.083 ± 0.63	1505.1 ± 5.1
m1 = 0.1768	1000.88 ± 1	999.919 ± 1	998.707 ± 0.97	997.258 ± 0.94	995.602 ± 0.91	1509.2 ± 7.5
m1 = 0.2361	1001.44 ± 1.4	1000.47 ± 1.4	999.234 ± 1.4	997.769 ± 1.3	996.09 ± 1.3	1513.3 ± 9.9
m1 = 0.2958	1002.09 ± 1.9	1001.09 ± 1.6	999.839 ± 1.6	998.357 ± 1.5	996.661 ± 1.7	1517.4 ± 12
